Laboratory results reported in the supplement of paper PMC10307832.

Tests used:
Test in all cases: relative viability (nuclei count vs DMSO), 5 days (fraction); higher = more cells survive
[1] = compound: C1CC1C(=O)NC2=NNC3=C2C=CC(=C3)C4=CC(=CC=C4)C(=O)NC5CC5 [XMD13-2] + CC(=O)c1c(C)c2cnc(Nc3ccc(N4CCNCC4)cn3)nc2n(C2CCCC2)c1=O [Palbociclib] (partner 0.5 µM)
Outline: (§1)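 Relative viability equals treated-well nuclei counts divided by vehicle-well nuclei counts. Counts came from 4× images of lung cancer cell lines grown in 1536-well plates for 5 days after pin-tool dosing on the day after seeding. Dosing used one drug alone or a fixed anchor-drug dose plus five library-drug doses (not always all listed) in √10 steps, and values are medians of duplicate plates.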

[2] = compound: C1CC1C(=O)NC2=NNC3=C2C=CC(=C3)C4=CC(=CC=C4)C(=O)NC5CC5 [XMD13-2] + CCNC(=O)c1noc(-c2cc(C(C)C)c(O)cc2O)c1-c1ccc(CN2CCOCC2)cc1 [Luminespib] (partner 0.01 µM)
Outline: as §1

[3] = compound: Cc1ccc(C(=O)Nc2cccc(C(F)(F)F)c2)cc1Nc1cncc(C(N)=O)c1 [ALW-II-49-7] + Cc1nc(Nc2ncc(C(=O)Nc3c(C)cccc3Cl)s2)cc(N2CCN(CCO)CC2)n1 [Dasatinib] (partner 0.075 µM)
Outline: as §1

[4] = compound: Cc1nc(Nc2ncc(C(=O)Nc3c(C)cccc3Cl)s2)cc(N2CCN(CCO)CC2)n1 [Dasatinib] + Nc1nc2[nH]cc(CCc3ccc(C(=O)N[C@@H](CCC(=O)O)C(=O)O)cc3)c2c(=O)[nH]1 [Pemetrexed] (partner 0.2 µM)
Outline: as §1

| Cell Line | relative viability ([1]; first compound 0.05 µM) | relative viability ([1]; first compound 0.1581 µM) | relative viability ([1]; first compound 0.5 µM) | relative viability ([1]; first compound 1.581 µM) | relative viability ([1]; first compound 5 µM) | relative viability ([2]; first compound 0.05 µM) | relative viability ([2]; first compound 0.1581 µM) | relative viability ([2]; first compound 0.5 µM) | relative viability ([2]; first compound 1.581 µM) | relative viability ([2]; first compound 5 µM) | relative viability ([3]; first compound 0.08 µM) | relative viability ([3]; first compound 0.253 µM) | relative viability ([3]; first compound 0.8 µM) | relative viability ([3]; first compound 2.53 µM) | relative viability ([3]; first compound 8 µM) | relative viability ([4]; first compound 0.005 µM) | relative viability ([4]; first compound 0.01581 µM) | relative viability ([4]; first compound 0.05 µM) | relative viability ([4]; first compound 0.1581 µM) | relative viability ([4]; first compound 0.5 µM) |
| --- | --- | --- | --- | --- | --- | --- | --- | --- | --- | --- | --- | --- | --- | --- | --- | --- | --- | --- | --- | --- |
| LXF-289 | 0.627 | 0.64 | 0.535 | 0.634 | 0.612 | 0.717 | 0.618 | 0.72 | 0.76 | 0.723 | 0.213 | 0.286 | 0.24 | 0.187 | 0.183 | 0.918 | 0.987 | 1.13 | 0.687 | 0.205 |
| NCI-H23 | 0.572 | 0.514 | 0.502 | 0.58 | 0.658 | 0.222 | 0.2 | 0.21 | 0.204 | 0.21 | 0.84 | 0.871 | 0.574 | 0.706 | 0.768 | 0.549 | 0.528 | 0.59 | 0.402 | 0.384 |
| NCI-H322M | 0.494 | 0.491 | 0.498 | – | 0.49 | 0.874 | 0.834 | 0.804 | 0.89 | 1.23 | 0.246 | 0.256 | 0.261 | 0.251 | 0.231 | 0.576 | 0.495 | 0.394 | 0.273 | 0.231 |
| NCI-H358 | 0.139 | 0.121 | 0.133 | 0.117 | 0.129 | 0.487 | 0.202 | 0.418 | 0.196 | 0.321 | 0.151 | 0.159 | 0.173 | 0.192 | 0.286 | 0.16 | 0.176 | 0.143 | 0.151 | 0.129 |
| NCI-H441 | 0.239 | 0.224 | 0.219 | 0.225 | 0.28 | 0.314 | 0.382 | 0.375 | 0.432 | 0.315 | 0.497 | 0.475 | 0.684 | 0.674 | 0.459 | 0.305 | 0.259 | 0.286 | 0.225 | 0.27 |
| NCI-H596 | – | – | – | – | – | 0.987 | 1 | 0.909 | 0.903 | 1.2 | 0.575 | 0.632 | 0.459 | 0.582 | 0.581 | 0.486 | 0.47 | 0.439 | 0.415 | 0.359 |
| NCI-H727 | 0.677 | 0.691 | 0.758 | 0.601 | 0.627 | 0.475 | 0.326 | 0.352 | 0.34 | 0.378 | 0.352 | 0.324 | 0.193 | 0.412 | 0.446 | – | – | – | – | – |
| NCI-H1563 | – | – | – | – | – | 0.521 | 0.526 | 0.527 | 0.536 | 0.506 | 0.442 | 0.466 | 0.441 | 0.477 | 0.486 | 0.684 | 0.625 | 0.487 | 0.458 | 0.4 |
| NCI-H1623 | – | – | – | – | – | 0.594 | 0.514 | 0.517 | 0.456 | 0.502 | 0.465 | 0.531 | 0.618 | 0.532 | 0.479 | – | – | – | – | – |
| NCI-H1648 | 0.309 | – | 0.273 | 0.275 | 0.235 | – | – | – | – | – | – | – | – | – | – | 0.454 | 0.716 | 0.936 | 0.699 | 0.239 |
